The nature of data set [1]: Intrinsic clearance in human. It counts as ADME, organism-based. The conditions noted are these: in vivo.
Data set [2] can be described thus: Intrinsic clearance in rat. The format is ADME, organism-based. The conditions noted are these: in vivo.

Our source for the CLint scaled values is ChEMBL document CHEMBL3352238, “Substituted indoles as selective protease activated receptor 4 (PAR-4) antagonists: Discovery and SAR of ML354” (Bioorg Med Chem Lett, 2014).

Broadly, the CLint scaled is the rate of metabolic loss divided by the concentration. For `CCOC(=O)c1ccc(-c2nn(Cc3ccccc3)c3ccccc23)cc1`, the intrinsic metabolic clearance (CLint scaled) is 75 mL/min/kg in data set [1] and 1090 mL/min/kg in data set [2].

On to `Cn1c(CO)c(-c2ccccc2)c2cc([N+](=O)[O-])ccc21`, for which the values for the CLint scaled in data set [1] and in data set [2] were 157 mL/min/kg and 359 mL/min/kg, respectively.

For `CCOC(=O)c1ccc(-c2cn(Cc3ccccc3)c3ccccc23)cc1`, the CLint scaled in data set [1] is 77 mL/min/kg; in data set [2] it was 1160 mL/min/kg.
